Holding throughout (assay type): functional, organism-based
Assay [1] has as its system Plasmodium falciparum. Put plainly: Antimalarial activity against chloroquine-resistant Plasmodium falciparum E8B assessed as Plasmodium lactate dehydrogenase release after 48 hrs by colorimetry.
Assay [2] relates to Plasmodium falciparum. Description: Antimalarial activity against chloroquine-resistant Plasmodium falciparum Dd2 assessed as Plasmodium lactate dehydrogenase release after 48 hrs by colorimetry. The settings on record: Dd2, 48 h.
Assay [3] deals with Plasmodium falciparum. Put plainly: Antimalarial activity against chloroquine-sensitive Plasmodium falciparum 3D7 assessed as Plasmodium lactate dehydrogenase release after 48 hrs by colorimetry. The settings on record: 3D7, 48 h.

The record followed here is ChEMBL document CHEMBL1649193, “Statins as potential antimalarial drugs: low relative potency and lack of synergy with conventional antimalarial drugs” (Antimicrob Agents Chemother, 2009).

One may read the IC50 as the point on the concentration scale where inhibition reaches its midpoint. In general, IC90 refers to the concentration needed for an effect of 90%.

For `CC(C)c1c(C(=O)Nc2ccccc2)c(-c2ccccc2)c(-c2ccc(F)cc2)n1CC[C@@H](O)C[C@@H](O)CC(=O)O` [ATORVASTATIN], the figures for the IC50 with Plasmodium falciparum [1], in the assay with Plasmodium falciparum [2] and in the assay with Plasmodium falciparum [3] were 17 µM, 17 µM and 25 µM, respectively. Moreover, the IC90 is 39 µM in the assay on Plasmodium falciparum [1], 39 µM with Plasmodium falciparum [2] and 68 µM in the assay with Plasmodium falciparum [3].

As for `CC(C)c1nc(N(C)S(C)(=O)=O)nc(-c2ccc(F)cc2)c1/C=C/[C@@H](O)C[C@@H](O)CC(=O)O` [ROSUVASTATIN], the IC50 in the assay with Plasmodium falciparum [1], in the assay on Plasmodium falciparum [2] and in the assay on Plasmodium falciparum [3] was 80 µM in each case. Moreover, the results for the concentration for an effect of 90% (IC90) in the assay with Plasmodium falciparum [1], with Plasmodium falciparum [2] and with Plasmodium falciparum [3] were 232 µM, 232 µM and 205 µM, respectively.
